# Laboratory results reported in ChEMBL document CHEMBL4706609, “Development of triazolothiadiazine derivatives as highly potent tubulin polymerization inhibitors: Structure-activity relationship, in vitro and in vivo study” (Eur J Med Chem, 2020).
# Activity calls are given as the source filed them. The rule behind the calls is not given here.
# Legend:
# [1] = Antitumor activity against human A549 cells xenografted in BALB/c mouse assessed as tumor weight at 8 mg/kg, ip measured every 2 days for every 2 days upto 30 days (reference value: 0.563 g); format: functional; conditions: time 2 day
# HT-29 = experiment: Antiproliferative activity against human HT-29 cells assessed as reduction in cell growth after 48 hrs by MTT assay; format: functional, cell-based; conditions: HT-29, 48 h
# HeLa = experiment: Antiproliferative activity against human HeLa cells assessed as reduction in cell growth after 48 hrs by MTT assay; format: functional, cell-based
# A549 [2] = experiment: Antiproliferative activity against human A549 cells assessed as reduction in cell growth after 48 hrs by MTT assay; format: functional, cell-based; conditions: A549, 48 h
# MCF7 = experiment: Antiproliferative activity against human MCF7 cells assessed as reduction in cell growth after 48 hrs by MTT assay; format: functional, cell-based; conditions: MCF7, 48 h
# HEK293 = experiment: Cytotoxicity against HEK293 cells assessed as reduction in cell growth after 48 hrs by MTT assay; format: cell-based; conditions: Homo sapiens, HEK293, 48 h
# A2780 = experiment: Antiproliferative activity against paclitaxel-resistant human A2780 cells assessed as reduction in cell growth after 48 hrs by MTT assay; format: functional, cell-based; conditions: A2780, 48 h
# A549 [3] = experiment: Antiproliferative activity against cisplatin resistant human A549 cells assessed as reduction in cell growth after 48 hrs by MTT assay; format: functional, cell-based; conditions: A549, 48 h
# [4] = (§1) Inhibition of porcine brain tubulin polymerization measured for 20 mins by spectrometric assay; format: tissue-based, Sus scrofa
# Sus scrofa = organism: Sus scrofa; experiment: as §1; format: tissue-based
# Tubulin = experiment: Inhibition of tubulin polymerization in human A549 cells assessed as disruption of microtubule organization at 50 nM incubated for 6 hrs by immunofluorescent staining; format: cell-based
# A549 [5] = experiment: Induction of cell cycle arrest in human A549 cells assessed as accumulation at G2/M phase at 20 nM incubated for 24 hrs by flow cytometry relative to control; format: functional
# A549 [6] = experiment: Induction of cell cycle arrest in human A549 cells assessed as accumulation at G2/M phase upto 20 nM incubated for 24 hrs by flow cytometry; format: functional, cell-based; conditions: dose nM <=20, time 24.0 hrs
# A549 [7] = experiment: Induction of cell cycle arrest in human A549 cells assessed as inhibition of p-cdc2/cyclin B1 activity incubated for 24 hrs by Western blot analysis; format: functional, cell-based
# A549 [8] = experiment: Induction of cell cycle arrest in human A549 cells assessed as increase in p-cdc2 expression upto 10 nM incubated for 24 hrs by Western blot analysis; format: functional, cell-based; conditions: dose nM <=10, time 24.0 hrs
# A549 [9] = experiment: Induction of apoptosis in human A549 cells assessed as apoptotic cells upto 10 nM measured after 24 hrs by Annexin V-FITC/propidium iodide staining based flow cytometry; format: functional, cell-based; conditions: dose nM <=10, time 24.0 hrs
# A549 [10] = experiment: Induction of apoptosis in human A549 cells assessed as increase in cleaved caspase-3 level incubated for 24 hrs by Western blot analysis; format: functional, cell-based; conditions: dose nM <=10, time 24.0 hrs
# A549 [11] = experiment: Induction of apoptosis in human A549 cells assessed as increase in cleaved PARP level incubated for 24 hrs by Western blot analysis; format: functional, cell-based; conditions: dose nM <=10, time 24.0 hrs
# A549 [12] = experiment: Induction of apoptosis in human A549 cells assessed as decrease in Bcl2 level upto 10 nM incubated for 24 hrs by Western blot analysis; format: functional, cell-based; conditions: dose nM <=10, time 24.0 hrs
# [13] = Antitumor activity against human A549 cells xenografted in BALB/c mouse assessed as tumor volume at 15 mg/kg, ip measured for every 2 days upto 30 days (reference value: 652.13 mm^3); format: functional; conditions: time 2 day
# [14] = Antitumor activity against human A549 cells xenografted in BALB/c mouse assessed as tumor volume at 60 mg/kg, ip measured for every 2 days upto 30 days (reference value: 652.13 mm^3); format: functional; conditions: time 2 day
# [15] = Antitumor activity against human A549 cells xenografted in BALB/c mouse assessed as tumor weight at 15 mg/kg, ip measured every 2 days upto 30 days (reference value: 0.563 g); format: functional; conditions: time 2 day
# [16] = Antitumor activity against human A549 cells xenografted in BALB/c mouse assessed as tumor weight at 60 mg/kg, ip measured every 2 days upto 30 days (reference value: 0.563 g); format: functional; conditions: time 2 day
# [17] = Antitumor activity against human A549 cells xenografted in BALB/c mouse assessed as tumor growth inhibition at 15 mg/kg, ip measured every 2 days upto 30 days relative to control; format: functional; set-up: scale not given: the % may be the effect or the level left; conditions: time 30 day
# [18] = Antitumor activity against human A549 cells xenografted in BALB/c mouse assessed as tumor growth inhibition at 60 mg/kg, ip measured every 2 days upto 30 days relative to control; format: functional; set-up: scale not given: the % may be the effect or the level left; conditions: time 30 day
# [19] = Toxicity in BALB/c mouse xenografted with human A549 cells assessed as change in body weight at 15 mg/kg, ip measured after 30 days; format: organism-based; conditions: in vivo, 720 h, time 30 day
# [20] = Toxicity in BALB/c mouse xenografted with human A549 cells assessed as change in body weight at 60 mg/kg, ip measured after 30 days; format: organism-based; conditions: in vivo, 720 h, time 30 day
# A549 [21] = experiment: Induction of apoptosis in human A549 cells assessed as viable cells at 2.5 nM measured after 24 hrs by Annexin V-FITC/propidium iodide staining based flow cytometry (reference value: 95.3%); format: functional; conditions: read-out: Activity
# A549 [22] = experiment: Induction of apoptosis in human A549 cells assessed as early apoptotic cells at 2.5 nM measured after 24 hrs by Annexin V-FITC/propidium iodide staining based flow cytometry (reference value: 2.72%); format: functional
# A549 [23] = experiment: Induction of apoptosis in human A549 cells assessed as late apoptotic cells at 2.5 nM measured after 24 hrs by Annexin V-FITC/propidium iodide staining based flow cytometry (reference value: 1.51%); format: functional
# A549 [24] = experiment: Induction of apoptosis in human A549 cells assessed as necrotic cells at 2.5 nM measured after 24 hrs by Annexin V-FITC/propidium iodide staining based flow cytometry (reference value: 0.508%); format: functional
# A549 [25] = experiment: Induction of apoptosis in human A549 cells assessed as viable cells at 5 nM measured after 24 hrs by Annexin V-FITC/propidium iodide staining based flow cytometry (reference value: 95.3%); format: functional; conditions: read-out: Activity
# A549 [26] = experiment: Induction of apoptosis in human A549 cells assessed as early apoptotic cells at 5 nM measured after 24 hrs by Annexin V-FITC/propidium iodide staining based flow cytometry (reference value: 2.72%); format: functional
# A549 [27] = experiment: Induction of apoptosis in human A549 cells assessed as late apoptotic cells at 5 nM measured after 24 hrs by Annexin V-FITC/propidium iodide staining based flow cytometry (reference value: 1.51%); format: functional
# A549 [28] = experiment: Induction of apoptosis in human A549 cells assessed as necrotic cells at 5 nM measured after 24 hrs by Annexin V-FITC/propidium iodide staining based flow cytometry (reference value: 0.508%); format: functional
# A549 [29] = experiment: Induction of apoptosis in human A549 cells assessed as viable cells at 10 nM measured after 24 hrs by Annexin V-FITC/propidium iodide staining based flow cytometry (reference value: 95.3%); format: functional; conditions: read-out: Activity
# A549 [30] = experiment: Induction of apoptosis in human A549 cells assessed as early apoptotic cells at 10 nM measured after 24 hrs by Annexin V-FITC/propidium iodide staining based flow cytometry (reference value: 2.72%); format: functional
# A549 [31] = experiment: Induction of apoptosis in human A549 cells assessed as late apoptotic cells at 10 nM measured after 24 hrs by Annexin V-FITC/propidium iodide staining based flow cytometry (reference value: 1.51%); format: functional
# A549 [32] = experiment: Induction of apoptosis in human A549 cells assessed as necrotic cells at 10 nM measured after 24 hrs by Annexin V-FITC/propidium iodide staining based flow cytometry (reference value: 0.508%); format: functional
# [33] = Antitumor activity against human A549 cells xenografted in BALB/c mouse assessed as tumor volume at 8 mg/kg, ip measured for every 2 days upto 30 days (reference value: 652.13 mm^3); format: functional; conditions: time 2 day
# [34] = Antitumor activity against human A549 cells xenografted in BALB/c mouse assessed as tumor growth inhibition at 8 mg/kg, ip measured every 2 days for every 2 days upto 30 days relative to control; format: functional; set-up: scale not given: the % may be the effect or the level left; conditions: time 2 day
smiles,measurement,setting,value
COc1cc(-c2nnc3n2N=C(c2ccc(C)cc2)CS3)cc(OC)c1OC,Activity,[1],0.234 g
same,IC50,HT-29,23 nM
same,IC50,HeLa,4 nM
same,IC50,A549 [2],50 nM
same,IC50,MCF7,98 nM
same,IC50,HEK293,> 100000 nM
same,IC50,A2780,18800 nM
same,IC50,A549 [3],3950 nM
same,IC50,[4],1690 nM
same,inhibition,Sus scrofa,Dose-dependent effect
same,IC50,Tubulin,Active
same,Activity,A549 [5],91.56%
same,Activity,A549 [6],Dose-dependent effect
same,Activity,A549 [7],Active
same,Activity,A549 [8],Dose-dependent effect
same,Activity,A549 [9],Dose-dependent effect
same,Activity,A549 [10],Dose-dependent effect
same,Activity,A549 [11],Dose-dependent effect
same,Activity,A549 [12],Active
same,Activity,[13],449.88 mm3
same,Activity,[14],354.12 mm3
same,Activity,[15],0.397 g
same,Activity,[16],0.313 g
same,Activity,[17],29.5%
same,Activity,[18],44.4%
same,Activity,[19],Non-Toxic
same,Activity,[20],Non-Toxic
same,viability at 0.0025 µM,A549 [21],88.8%
same,Activity,A549 [22],5.36%
same,Activity,A549 [23],5.36%
same,Activity,A549 [24],0.529%
same,viability at 0.005 µM,A549 [25],82.8%
same,Activity,A549 [26],6.58%
same,Activity,A549 [27],9.97%
same,Activity,A549 [28],0.694%
same,viability at 0.01 µM,A549 [29],77.6%
same,Activity,A549 [30],8.66%
same,Activity,A549 [31],13.1%
same,Activity,A549 [32],0.666%
same,Activity,[33],264 mm3
same,Activity,[34],58.4%
